Experimental data reported in patent US8003093B2, “B cell-based vaccine loaded with the ligand of natural killer T cell and antigen” (Seoul National University Industry Foundation, priority 2006, dated 2011).

Assays:
[1] = clinical trial, systemic administration; cited from earlier work
[2] = Dose escalation study of αGalCer; type: in vivo
Source text: There is a little, if ever, chance to show a slight systemic side effect (Giaccone et al., Clin. Cancer Res., 8: 3702, 2002).

[3] = rodents and apes; cited from earlier work
[4] = 2200 μg/kg, mouse; cited from earlier work

For `CCCCCCCCCCCCCCCCCCCCCCCCCC(=O)N[C@@H](CO[C@H]1O[C@H](CO)[C@H](O)[C@H](O)[C@H]1O)[C@H](O)[C@H](O)CCCCCCCCCCCCCC` [αGalCer, Alpha-galactosylceramide], which side effect [1] is on record?
The side effect was “a light headache”.

What about the dose-limiting toxicity [2] of the same molecule?
The dose-limiting toxicity was “did not cause dose-limiting toxicity”.

What about the toxicity [3] of the same molecule?
Its toxicity is “doesn't seem to induce toxicity”.

What about the side effects [4] of the same molecule?
The side effects was “No side effects”.
